What was measured:
[1] = molecular target: T1, HTR1B (Homo sapiens, UniProt P28222); experiment: PathHunter β-arrestin assay; type: cell-based; conditions: screen, control agonist; U20S, 37C, 2HR
T1 construct: purchased Eurofins DiscoverX (PathHunter gpcrMAX)

[2] = molecular target: T2, HTR1E (Homo sapiens, UniProt P28566); experiment: PathHunter β-arrestin assay; type: cell-based; conditions: screen, control agonist; U20S, 37C, 2HR
T2 construct: purchased Eurofins DiscoverX (PathHunter gpcrMAX)

[3] = molecular target: T3, HTR5A (Homo sapiens, UniProt P47898); experiment: PathHunter β-arrestin assay; type: cell-based; conditions: screen, control agonist; U20S, 37C, 2HR
T3 construct: purchased Eurofins DiscoverX (PathHunter gpcrMAX)

[4] = molecular target: T4, HTR1A (Homo sapiens, UniProt P08908); experiment: PathHunter β-arrestin assay; type: cell-based; conditions: screen, control agonist; CHO, 37C, 2HR
T4 construct: purchased Eurofins DiscoverX (PathHunter gpcrMAX)

[5] = molecular target: T5, HTR1F (Homo sapiens, UniProt P30939); experiment: PathHunter β-arrestin assay; type: cell-based; conditions: screen, control agonist; U20S, 37C, 2HR
T5 construct: purchased Eurofins DiscoverX (PathHunter gpcrMAX)

[6] = molecular target: T6, HTR2A (Homo sapiens, UniProt P28223); experiment: PathHunter β-arrestin assay; type: cell-based; conditions: screen, control agonist; U20S, 37C, 2HR
T6 construct: purchased Eurofins DiscoverX (PathHunter gpcrMAX)

[7] = molecular target: T7, MRGPRX1 (Homo sapiens, UniProt Q96LB2); experiment: PathHunter β-arrestin assay; type: cell-based; conditions: screen, control agonist; CHO, 37C, 2HR
T7 construct: purchased Eurofins DiscoverX (PathHunter gpcrMAX)

[8] = tested on: CB1; set-up: method as in PMID 20599795; conditions: 10 nM, 15 min application; not recovered up to 5 h later; cited from earlier work
[9] = molecular target: T8, NPFFR1 (Homo sapiens, UniProt Q9GZQ6); experiment: PathHunter β-arrestin assay; type: cell-based; conditions: screen, control agonist; CHO, 37C, 2HR
T8 construct: purchased Eurofins DiscoverX (PathHunter gpcrMAX)

[10] = molecular target: HCRTR2 (Homo sapiens, UniProt O43614); experiment: PathHunter β-arrestin assay; type: cell-based; conditions: follow-up assays, control antagonist
[11] = molecular target: T9, HCRTR1 (Homo sapiens, UniProt O43613); experiment: PathHunter β-arrestin assay; type: cell-based; conditions: follow-up assays, control antagonist
T9 sequence (O43613 1-425): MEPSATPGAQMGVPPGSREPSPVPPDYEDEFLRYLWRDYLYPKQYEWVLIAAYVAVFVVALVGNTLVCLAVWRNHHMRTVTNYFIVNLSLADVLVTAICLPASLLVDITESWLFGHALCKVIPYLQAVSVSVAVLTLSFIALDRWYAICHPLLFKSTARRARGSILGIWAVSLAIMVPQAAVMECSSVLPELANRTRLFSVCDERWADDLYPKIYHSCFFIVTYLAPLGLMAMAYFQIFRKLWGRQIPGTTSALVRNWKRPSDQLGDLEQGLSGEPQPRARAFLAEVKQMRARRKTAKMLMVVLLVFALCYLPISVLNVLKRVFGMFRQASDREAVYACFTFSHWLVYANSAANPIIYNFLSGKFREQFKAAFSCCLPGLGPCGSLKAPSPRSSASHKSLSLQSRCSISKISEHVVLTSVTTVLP
Protocol: Follow up experiments were prioritized based on the difference between S/N and CoV. Targets with a >5-fold difference between S/N and CoV were investigated for their potential contribution to the AMB-FUBINACA toxidrome with 10-point concentration-response curves generated in technical replicate (range 1.5–30 μM) using the EC80 of the relevant agonist, where applicable in antagonist mode. Simultaneous agonist and antagonist curves were run in parallel to ensure reliability of the assay (see Supplementary Table 2), with both RC50 and signal to background aligning with historical averages, and Z' >0.5. RC50 was estimated using a four-parameter fit (CBIS Data Analysis Suite, ChemInnovation, San Diego, CA) on normalized data.

[12] = molecular target: T10, LTB4R (Homo sapiens, UniProt Q15722); experiment: PathHunter β-arrestin assay; type: cell-based; conditions: screen, control agonist; CHO, 37C, 2HR
T10 construct: purchased Eurofins DiscoverX (PathHunter gpcrMAX)

[13] = molecular target: T11, ADORA3 (Homo sapiens, UniProt P0DMS8); experiment: PathHunter β-arrestin assay; type: cell-based; conditions: follow-up assays, control antagonist
T11 construct: host or cells: CHO

[14] = molecular target: OXTR (Homo sapiens, UniProt P30559); experiment: PathHunter β-arrestin assay; type: cell-based; conditions: follow-up assays, control antagonist
[15] = molecular target: HRH4 (Homo sapiens, UniProt Q9H3N8); conditions: screen, control agonist; U20S, 37C, 4HR
[16] = molecular target: HRH2 (Homo sapiens, UniProt P25021); experiment: PathHunter β-arrestin assay; type: cell-based; conditions: control agonist
HRH2, sequence (P25021 whole entry): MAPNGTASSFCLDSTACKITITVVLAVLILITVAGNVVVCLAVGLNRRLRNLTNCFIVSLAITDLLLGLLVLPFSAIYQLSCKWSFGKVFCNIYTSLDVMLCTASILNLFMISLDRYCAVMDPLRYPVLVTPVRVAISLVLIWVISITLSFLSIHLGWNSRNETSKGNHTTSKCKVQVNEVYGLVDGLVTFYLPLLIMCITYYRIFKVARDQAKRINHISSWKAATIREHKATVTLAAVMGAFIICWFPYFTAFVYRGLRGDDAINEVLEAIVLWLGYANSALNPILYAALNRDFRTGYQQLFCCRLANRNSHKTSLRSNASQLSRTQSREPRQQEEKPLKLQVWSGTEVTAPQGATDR

T5 sequence (P30939 whole entry): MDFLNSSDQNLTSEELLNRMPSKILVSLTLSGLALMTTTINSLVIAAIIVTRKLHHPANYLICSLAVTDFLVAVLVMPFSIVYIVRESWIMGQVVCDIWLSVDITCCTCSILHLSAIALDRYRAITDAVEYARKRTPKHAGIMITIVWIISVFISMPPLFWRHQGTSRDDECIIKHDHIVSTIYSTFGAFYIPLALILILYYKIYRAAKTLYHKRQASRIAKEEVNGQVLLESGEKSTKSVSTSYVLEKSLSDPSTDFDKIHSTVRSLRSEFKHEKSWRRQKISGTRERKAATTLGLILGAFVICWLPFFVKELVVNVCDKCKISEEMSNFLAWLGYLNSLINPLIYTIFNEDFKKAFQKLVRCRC
T1 sequence (P28222 whole entry): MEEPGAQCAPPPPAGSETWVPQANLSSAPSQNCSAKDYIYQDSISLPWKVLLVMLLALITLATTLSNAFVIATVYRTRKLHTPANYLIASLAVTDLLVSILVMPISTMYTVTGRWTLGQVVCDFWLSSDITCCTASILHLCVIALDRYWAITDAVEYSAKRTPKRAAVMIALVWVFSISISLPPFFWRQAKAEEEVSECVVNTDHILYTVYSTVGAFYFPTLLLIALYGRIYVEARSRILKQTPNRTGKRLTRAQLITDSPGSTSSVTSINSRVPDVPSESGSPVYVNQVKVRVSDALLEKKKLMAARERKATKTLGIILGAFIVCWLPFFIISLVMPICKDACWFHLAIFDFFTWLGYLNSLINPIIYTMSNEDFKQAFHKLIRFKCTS
HCRTR2, sequence (O43614 whole entry): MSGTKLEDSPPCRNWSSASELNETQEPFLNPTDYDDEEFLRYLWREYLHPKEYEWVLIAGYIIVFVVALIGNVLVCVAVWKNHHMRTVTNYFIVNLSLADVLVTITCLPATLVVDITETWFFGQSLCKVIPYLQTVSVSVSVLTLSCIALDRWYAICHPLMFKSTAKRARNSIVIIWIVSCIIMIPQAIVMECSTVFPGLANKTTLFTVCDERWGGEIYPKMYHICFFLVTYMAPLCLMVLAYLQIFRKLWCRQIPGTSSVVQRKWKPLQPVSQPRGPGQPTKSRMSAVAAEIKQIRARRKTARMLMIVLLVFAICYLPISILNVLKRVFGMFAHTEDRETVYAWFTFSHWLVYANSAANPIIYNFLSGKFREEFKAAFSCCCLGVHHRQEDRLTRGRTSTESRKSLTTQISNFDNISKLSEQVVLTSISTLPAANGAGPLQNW
T7 sequence (Q96LB2 whole entry): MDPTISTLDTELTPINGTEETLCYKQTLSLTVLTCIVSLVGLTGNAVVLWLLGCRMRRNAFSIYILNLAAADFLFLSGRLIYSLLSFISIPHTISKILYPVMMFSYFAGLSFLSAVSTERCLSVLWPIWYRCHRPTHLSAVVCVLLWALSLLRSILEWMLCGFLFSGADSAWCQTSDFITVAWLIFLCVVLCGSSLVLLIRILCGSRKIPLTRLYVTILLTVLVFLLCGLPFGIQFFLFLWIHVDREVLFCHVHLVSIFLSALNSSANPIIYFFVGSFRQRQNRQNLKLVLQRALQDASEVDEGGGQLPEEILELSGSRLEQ
T10 sequence (Q15722 whole entry): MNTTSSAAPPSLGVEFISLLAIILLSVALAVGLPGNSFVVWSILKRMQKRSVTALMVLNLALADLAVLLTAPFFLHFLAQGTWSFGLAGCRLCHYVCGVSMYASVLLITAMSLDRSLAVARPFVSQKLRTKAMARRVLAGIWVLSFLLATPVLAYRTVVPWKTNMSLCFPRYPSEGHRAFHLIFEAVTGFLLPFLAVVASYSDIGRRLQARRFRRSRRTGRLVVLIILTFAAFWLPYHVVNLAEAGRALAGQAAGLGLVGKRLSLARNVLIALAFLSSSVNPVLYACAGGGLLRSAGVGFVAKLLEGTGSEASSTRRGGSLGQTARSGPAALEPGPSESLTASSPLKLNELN
T2 sequence (P28566 whole entry): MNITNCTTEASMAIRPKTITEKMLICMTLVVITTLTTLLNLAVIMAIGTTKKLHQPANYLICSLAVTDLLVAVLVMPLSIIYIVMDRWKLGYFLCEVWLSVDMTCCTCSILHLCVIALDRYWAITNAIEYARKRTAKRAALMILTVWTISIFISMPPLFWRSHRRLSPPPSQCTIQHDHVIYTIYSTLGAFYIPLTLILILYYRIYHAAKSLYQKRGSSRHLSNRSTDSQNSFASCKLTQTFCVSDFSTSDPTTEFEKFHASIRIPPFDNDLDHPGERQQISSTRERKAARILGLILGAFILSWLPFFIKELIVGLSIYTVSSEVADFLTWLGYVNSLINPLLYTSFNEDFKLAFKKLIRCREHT
T6 sequence (P28223 whole entry, looked up): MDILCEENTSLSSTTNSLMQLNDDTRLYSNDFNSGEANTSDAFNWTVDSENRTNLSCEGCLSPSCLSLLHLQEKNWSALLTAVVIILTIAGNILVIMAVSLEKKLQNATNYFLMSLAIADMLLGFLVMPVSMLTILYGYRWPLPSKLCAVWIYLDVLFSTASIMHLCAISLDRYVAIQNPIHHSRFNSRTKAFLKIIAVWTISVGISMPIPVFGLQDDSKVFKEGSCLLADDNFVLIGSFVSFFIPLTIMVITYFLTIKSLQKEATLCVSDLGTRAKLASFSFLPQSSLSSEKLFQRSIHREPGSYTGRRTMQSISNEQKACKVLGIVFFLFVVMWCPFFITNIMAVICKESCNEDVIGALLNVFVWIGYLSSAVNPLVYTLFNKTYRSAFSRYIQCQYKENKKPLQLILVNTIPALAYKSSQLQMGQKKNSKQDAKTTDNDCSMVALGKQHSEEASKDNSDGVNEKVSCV
HRH4, sequence (Q9H3N8 whole entry): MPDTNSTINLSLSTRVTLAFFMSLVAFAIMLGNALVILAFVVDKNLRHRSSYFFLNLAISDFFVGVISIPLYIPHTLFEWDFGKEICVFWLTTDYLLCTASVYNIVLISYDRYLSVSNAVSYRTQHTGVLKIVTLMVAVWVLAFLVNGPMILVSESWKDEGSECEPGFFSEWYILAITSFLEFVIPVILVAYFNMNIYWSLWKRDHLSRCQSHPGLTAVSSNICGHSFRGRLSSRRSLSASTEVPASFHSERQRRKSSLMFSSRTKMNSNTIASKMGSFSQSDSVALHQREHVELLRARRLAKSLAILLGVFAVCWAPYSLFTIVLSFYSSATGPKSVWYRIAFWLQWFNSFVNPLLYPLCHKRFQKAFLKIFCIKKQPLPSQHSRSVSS
T4 sequence (P08908 whole entry): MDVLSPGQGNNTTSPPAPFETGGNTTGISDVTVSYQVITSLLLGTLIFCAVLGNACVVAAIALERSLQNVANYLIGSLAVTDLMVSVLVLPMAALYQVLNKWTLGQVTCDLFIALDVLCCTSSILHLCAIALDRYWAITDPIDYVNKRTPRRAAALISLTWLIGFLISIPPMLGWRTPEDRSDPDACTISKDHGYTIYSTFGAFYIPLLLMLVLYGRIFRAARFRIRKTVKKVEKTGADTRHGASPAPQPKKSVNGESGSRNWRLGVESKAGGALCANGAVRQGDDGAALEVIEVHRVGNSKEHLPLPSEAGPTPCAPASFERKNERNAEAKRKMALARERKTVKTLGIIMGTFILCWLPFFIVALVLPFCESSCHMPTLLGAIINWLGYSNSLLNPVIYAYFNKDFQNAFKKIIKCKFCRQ
T8 sequence (Q9GZQ6 whole entry): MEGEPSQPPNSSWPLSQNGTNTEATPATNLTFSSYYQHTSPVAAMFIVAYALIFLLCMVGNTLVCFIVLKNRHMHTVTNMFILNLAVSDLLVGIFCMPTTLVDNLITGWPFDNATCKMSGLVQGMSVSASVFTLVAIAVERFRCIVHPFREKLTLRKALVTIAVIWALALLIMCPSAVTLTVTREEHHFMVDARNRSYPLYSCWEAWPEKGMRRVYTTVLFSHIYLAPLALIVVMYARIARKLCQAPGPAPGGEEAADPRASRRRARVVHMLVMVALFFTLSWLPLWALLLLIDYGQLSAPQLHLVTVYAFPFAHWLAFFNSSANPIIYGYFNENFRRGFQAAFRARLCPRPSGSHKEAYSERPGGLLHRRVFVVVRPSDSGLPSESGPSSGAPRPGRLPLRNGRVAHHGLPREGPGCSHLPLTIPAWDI
T11 sequence (P0DMS8 whole entry): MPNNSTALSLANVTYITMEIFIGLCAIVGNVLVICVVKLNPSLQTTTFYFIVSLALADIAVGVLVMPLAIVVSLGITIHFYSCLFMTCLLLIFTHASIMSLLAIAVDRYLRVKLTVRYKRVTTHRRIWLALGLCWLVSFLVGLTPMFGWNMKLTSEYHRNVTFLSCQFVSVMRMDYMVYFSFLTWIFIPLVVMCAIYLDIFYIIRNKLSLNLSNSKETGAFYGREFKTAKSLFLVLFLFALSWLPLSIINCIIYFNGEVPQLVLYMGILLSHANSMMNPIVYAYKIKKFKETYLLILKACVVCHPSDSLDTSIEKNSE

Work on `NCCc1c[nH]c2ccc(O)cc12` [Serotonin / 5-HT, Serotonin] yielded an EC80 [1] of 173 nM, an EC80 [2] of 21.6 nM and an EC80 [3] of 26.4 nM. For the same compound, the EC80 [4] was 377 nM, the EC80 [5] was 127 nM and the EC80 [6] was 171 nM.
In the case of BAM(8-22), the EC80 [7] is reported as 8580 nM.
In the case of `CCCCCCC(C)(C)c1cc(O)c2c(c1)OC(C)(C)[C@@H]1CC=C(CO)C[C@@H]21` [HU210], the CB1 internalization [8] is listed as “near maximal internalization”.
With RFRP-3 the EC80 [9] was 148 nM.
In the case of `Cc1cc(NC(=O)Nc2ccc(N(C)C)cc2)c2cc(F)cc(F)c2n1` [SB 408124], the IC50 [10] is reported as 11500 nM and the IC50 [11] is reported as 74.4 nM.
`CCCCC/C=C\C[C@@H](O)/C=C/C=C/C=C\[C@@H](O)CCCC(=O)O` [Leukotriene B4] showed an EC80 [12] of 456 nM.
Compound `COc1ccccc1NC(=O)Nc1nc(-c2cccnc2)nc2ccccc12` [VUF 5574] has an IC50 [13] of 3.73 nM.
In the case of `Cc1ccccc1N1CCN(S(=O)(=O)C[C@]23CC[C@H](C[C@@H]2NC(=O)[C@@H](N)CCS(C)(=O)=O)C3(C)C)CC1` [L-368,899], the IC50 [14] is reported as 7.39 nM.
Work on `NCCc1c[nH]cn1` [Histamine] yielded an EC80 [15] of 102 nM, an EC80 ([16]; follow-up concentration-response assays) of 10722 nM and an EC80 ([16]; screen, CHO, RT, 2HR) of 10700 nM.

From article PMC9798004 (Frontiers in Psychiatry, 2022)
